We go through seven molecules from patent US8895033B2, “Sustained release formulations using non-aqueous carriers” (Amylin Pharmaceuticals, LLC, priority 2008, dated 2014).

This series can be described thus: Fraction of drug in microparticles and in MCT oil carrier after storage. The series is classed as physicochemical. From the text: Mixtures ranged from 2% to 10% w/w of the active pharmaceutical ingredient. The mixed powder was transferred to an extruder where the temperature was adjusted according to the chosen polymer. Some polymers needed higher temperatures to produce a melt with good flow properties. The extruder contained twin screws that moved clockwise to produce efficient mixing. The material was extruded through a 1.5 mm orifice, collected, cooled at room temperature, and cut into short strands about 1-2 inches long. These strands were then fed into a 12-tooth rotor mill, followed by a sieving step to produce microparticles of about 20 to 100 microns. The microparticles were collected and stored at 5° C. until further use.
Experimental samples were prepared by dispersing about 50 mg of the microparticles into 0.75 mL of a MCT oil carrier. The samples were stored at 5° C. and 25° C. for two days, two weeks, or one month, at which times representative samples were tested. The fraction of drug that remained in the microparticles and the fraction of drug that partitioned into the MCT oil carrier were determined. Briefly, the samples were centrifuged to separate the microparticles from the MCT oil carrier. Each portion was treated independently to determine the amount of drug it contained. Results are reported on the basis of the percent residing in each independent portion.

Where [1] appears, read: PLGA copolymer, 1 Month Storage at 5° C.
The mark [2] stands for this setting: PLGA copolymer, 1 Month Storage at 25° C.
Where [3] appears, read: PLGA copolymer, 2 Days Storage at 5° C.
Where [4] appears, read: PLGA copolymer, 2 Days Storage at 25° C.
Where [5] appears, read: polycaprolactone/PLGA copolymer, Two Weeks Storage, 5° C.
Setting [6] is: polycaprolactone/PLGA copolymer, Two Weeks Storage, 25° C.

Turning to metreleptin, the “percent of drug in MCT Carrier” value runs as follows: under setting [1], 0.0%; under setting [2], 0.0%; under setting [3], 0.0%; under setting [4], 0.0%. Moreover, the “percent of drug in Microparticles” value runs as follows: under setting [1], 100.0%; under setting [2], 100.0%; under setting [3], 100.0%; under setting [4], 100.0%.
As to davalintide, the “percent of drug in MCT Carrier” value under setting [1] is 0.6%, the “percent of drug in MCT Carrier” value under setting [2] amounted to 0.0%, the “percent of drug in MCT Carrier” value under setting [3] is on record as 0.2% and the “percent of drug in MCT Carrier” value under setting [4] was 0.0%. The “percent of drug in Microparticles” value is listed as 99.4% under setting [1], 100.0% under setting [2], 99.8% under setting [3] and 100.0% under setting [4].
`O=C([O-])c1ccccc1O.[Na+]` [sodium salicylate]: the “percent of drug in MCT Carrier” value under setting [1] came to 1.3%, the “percent of drug in MCT Carrier” value under setting [2] is 1.5%, the “percent of drug in MCT Carrier” value under setting [3] stood at 0.5% and the “percent of drug in MCT Carrier” value under setting [4] was 2.3%. The “percent of drug in Microparticles” value is, setting by setting: under setting [1], 98.7%; under setting [2], 98.5%; under setting [3], 99.5%; under setting [4], 97.7%.
Consider bovine serum albumin, for which the “percent of drug in MCT Carrier” value amounted to 0.0% under setting [1], 0.0% under setting [2], 0.0% under setting [3] and 0.0% under setting [4]. For the same molecule, the “percent of drug in Microparticles” value is, setting by setting: under setting [1], 100.0%; under setting [2], 100.0%; under setting [3], 100.0%; under setting [4], 100.0%.
Regarding `O=C(O)c1ccccc1O` [salicylic acid], the “percent of drug in MCT Carrier” value is recorded as 0.1% under setting [1], 0.2% under setting [2], 1.1% under setting [3] and 0.9% under setting [4]. Also, the “percent of drug in Microparticles” value under setting [1] came out at 99.9%, the “percent of drug in Microparticles” value under setting [2] is recorded as 99.8%, the “percent of drug in Microparticles” value under setting [3] is reported as 98.9% and the “percent of drug in Microparticles” value under setting [4] was 99.1%. Where the note is “from microparticles on storage”, the “migration into the MCT carrier oil” value is given as “did not migrate”.
For insulin, the “percent of drug in MCT Carrier” value under setting [1] turned out to be 0.5% and the “percent of drug in MCT Carrier” value under setting [2] turned out to be 0.7%. In addition, the “percent of drug in Microparticles” value under setting [1] was 99.5%.
Regarding `CC[C@H](C)[C@H](NC(=O)[C@@H]1CCCN1C(=O)CNC(=O)[C@H](Cc1ccccc1)NC(=O)[C@H](CC(N)=O)NC(=O)[C@H](CC(N)=O)NC(=O)[C@H](CO)NC(=O)[C@H](CO)NC(=O)[C@H](Cc1c[nH]cn1)NC(=O)[C@@H](NC(=O)[C@H](CC(C)C)NC(=O)[C@H](Cc1ccccc1)NC(=O)[C@H](CC(N)=O)NC(=O)[C@H](C)NC(=O)[C@H](CC(C)C)NC(=O)[C@H](CCCNC(=N)N)NC(=O)[C@H](CCC(N)=O)NC(=O)[C@@H](NC(=O)[C@H](C)NC(=O)[C@@H]1CSSC[C@H](NC(=O)[C@@H](N)CCCCN)C(=O)N[C@@H](CC(N)=O)C(=O)N[C@@H]([C@@H](C)O)C(=O)N[C@@H](C)C(=O)N[C@@H]([C@@H](C)O)C(=O)N1)[C@@H](C)O)C(C)C)C(=O)N[C@@H](CC(C)C)C(=O)N1CCC[C@H]1C(=O)N1CCC[C@H]1C(=O)N[C@H](C(=O)N[C@@H](CC(N)=O)C(=O)N[C@H](C(=O)NCC(=O)N[C@@H](CO)C(=O)N[C@@H](CC(N)=O)C(=O)N[C@H](C(=O)N[C@@H](Cc1ccc(O)cc1)C(N)=O)[C@@H](C)O)C(C)C)[C@@H](C)O` [pramlintide], the “percent of drug in MCT Carrier” value under setting [1] is on record as 0.3%; the “percent of drug in MCT Carrier” value under setting [2] came to 0.0%; the “percent of drug in MCT Carrier” value under setting [3] is 0.0%; the “percent of drug in MCT Carrier” value under setting [4] is reported as 0.0%; the “percent of drug in MCT Carrier” value under setting [5] was 0.0%; the “percent of drug in MCT Carrier” value under setting [6] amounted to 0.0%. The “percent of drug in Microparticles” value under setting [1] is on record as 99.7%; the “percent of drug in Microparticles” value under setting [2] was found to be 100.0%; the “percent of drug in Microparticles” value under setting [3] was 100.0%; the “percent of drug in Microparticles” value under setting [4] was 100.0%; the “percent of drug in Microparticles” value under setting [5] turned out to be 100.0%; the “percent of drug in Microparticles” value under setting [6] is recorded as 100.0%.
